≈ marks a conversion by molar mass, not a printed value.
Biological target: α-glucosidase
Test: pNPG hydrolysis, absorbance […] nm
Type: biochemical
Conditions: 1.25 mM pNPG, phosphate pH 6.8, 35 min preincubation at room temperature

- IC50 (μg mL^-1) / In vitro α-glucosidase inhibitory activity: 40.96 ± 0.96 µg/mL (≈ 183 µM)
SMILES: CC(=O)NC(CC(=O)O)c1ccccc1O (stereo not shown) [L1, 3-Acetylamino-3(2-hydroxyphenyl) propanoic acid]

Source: article PMC10074041 (RSC Advances, 2023)
